Structures can show the parent of a compound that is named as a salt.
Legend:
TNKS-1 = biological target: T1, TNKS-1 (Homo sapiens, UniProt O95271); assay: TNKS1 Histone Ribosylation Colorimetric Assay Kit (tankyrase-1 colorimetric activity assay); assay type: biochemical; conditions: for inhibition at 10 µM: read-out: TNKS-1 inhibitory activity (10 μM), 10 μM compound
T1 construct: purchased BPS Bioscience 80582
T1 sequence (O95271 1-1327): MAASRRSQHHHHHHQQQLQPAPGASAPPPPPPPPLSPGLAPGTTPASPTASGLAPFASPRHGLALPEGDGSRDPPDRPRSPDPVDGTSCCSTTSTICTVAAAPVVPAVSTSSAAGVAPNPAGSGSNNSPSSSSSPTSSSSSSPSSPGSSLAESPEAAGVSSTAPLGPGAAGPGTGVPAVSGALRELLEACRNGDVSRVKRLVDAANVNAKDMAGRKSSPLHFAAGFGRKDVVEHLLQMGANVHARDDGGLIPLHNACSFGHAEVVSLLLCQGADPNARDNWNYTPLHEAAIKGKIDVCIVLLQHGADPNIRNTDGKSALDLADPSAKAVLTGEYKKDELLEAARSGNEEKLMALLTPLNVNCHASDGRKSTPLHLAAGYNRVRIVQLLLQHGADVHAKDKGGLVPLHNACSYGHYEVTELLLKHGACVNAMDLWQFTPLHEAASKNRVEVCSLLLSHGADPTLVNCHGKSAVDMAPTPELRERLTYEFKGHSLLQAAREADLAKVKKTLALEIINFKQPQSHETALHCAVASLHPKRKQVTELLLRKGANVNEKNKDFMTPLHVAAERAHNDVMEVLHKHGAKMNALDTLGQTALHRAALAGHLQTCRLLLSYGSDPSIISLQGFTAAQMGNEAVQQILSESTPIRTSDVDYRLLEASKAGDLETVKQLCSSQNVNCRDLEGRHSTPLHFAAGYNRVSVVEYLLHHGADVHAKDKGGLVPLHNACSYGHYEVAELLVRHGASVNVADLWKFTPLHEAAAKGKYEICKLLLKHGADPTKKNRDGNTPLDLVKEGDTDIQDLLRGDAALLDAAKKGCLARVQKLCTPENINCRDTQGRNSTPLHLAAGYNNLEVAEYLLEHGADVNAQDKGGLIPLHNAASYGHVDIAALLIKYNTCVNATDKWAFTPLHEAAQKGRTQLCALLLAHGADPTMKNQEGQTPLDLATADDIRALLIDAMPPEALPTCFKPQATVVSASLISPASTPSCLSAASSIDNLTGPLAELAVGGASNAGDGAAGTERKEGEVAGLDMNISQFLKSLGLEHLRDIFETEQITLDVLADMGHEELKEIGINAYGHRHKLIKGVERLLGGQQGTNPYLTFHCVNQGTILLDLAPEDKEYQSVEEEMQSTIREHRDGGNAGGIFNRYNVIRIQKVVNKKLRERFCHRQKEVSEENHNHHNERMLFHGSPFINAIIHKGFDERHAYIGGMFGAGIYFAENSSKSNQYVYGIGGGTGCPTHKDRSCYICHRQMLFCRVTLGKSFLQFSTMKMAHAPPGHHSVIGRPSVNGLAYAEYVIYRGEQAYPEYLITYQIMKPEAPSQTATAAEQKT

TNKS-2 = biological target: T2, TNKS-2 (Homo sapiens, UniProt Q9H2K2); assay: TNKS-2 enzymatic activity inhibition; assay type: biochemical
T2 sequence (Q9H2K2 1-1166): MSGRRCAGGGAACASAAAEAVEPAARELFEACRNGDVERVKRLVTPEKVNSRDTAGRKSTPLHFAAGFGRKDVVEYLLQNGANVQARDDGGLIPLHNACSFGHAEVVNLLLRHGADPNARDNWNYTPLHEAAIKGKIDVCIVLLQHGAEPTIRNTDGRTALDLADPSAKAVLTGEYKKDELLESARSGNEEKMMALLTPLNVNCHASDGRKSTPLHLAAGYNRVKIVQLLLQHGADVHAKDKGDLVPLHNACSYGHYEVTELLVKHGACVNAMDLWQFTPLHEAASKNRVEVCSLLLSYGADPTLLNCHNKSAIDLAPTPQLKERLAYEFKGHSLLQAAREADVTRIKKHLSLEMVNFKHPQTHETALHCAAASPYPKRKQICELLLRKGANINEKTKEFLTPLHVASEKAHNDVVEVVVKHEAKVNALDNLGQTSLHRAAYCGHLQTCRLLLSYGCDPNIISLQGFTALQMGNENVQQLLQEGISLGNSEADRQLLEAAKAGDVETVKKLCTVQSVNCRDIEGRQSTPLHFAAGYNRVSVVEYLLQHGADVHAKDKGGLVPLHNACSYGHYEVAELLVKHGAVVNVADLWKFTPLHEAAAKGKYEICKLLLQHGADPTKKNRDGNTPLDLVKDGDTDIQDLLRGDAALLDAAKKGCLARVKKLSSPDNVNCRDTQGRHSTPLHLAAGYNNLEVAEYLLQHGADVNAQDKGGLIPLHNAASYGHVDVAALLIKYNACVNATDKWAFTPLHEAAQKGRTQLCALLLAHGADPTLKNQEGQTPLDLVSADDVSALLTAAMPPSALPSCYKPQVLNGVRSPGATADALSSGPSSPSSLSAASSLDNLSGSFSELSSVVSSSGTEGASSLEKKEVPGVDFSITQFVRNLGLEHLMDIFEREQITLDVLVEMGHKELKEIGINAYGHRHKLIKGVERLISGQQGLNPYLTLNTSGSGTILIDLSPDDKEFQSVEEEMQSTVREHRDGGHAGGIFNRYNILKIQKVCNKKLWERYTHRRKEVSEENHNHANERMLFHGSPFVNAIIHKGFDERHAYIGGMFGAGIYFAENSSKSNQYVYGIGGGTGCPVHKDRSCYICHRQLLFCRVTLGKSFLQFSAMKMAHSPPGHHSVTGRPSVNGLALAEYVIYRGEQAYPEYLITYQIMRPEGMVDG

PARP-1 = biological target: T3, PARP-1 (Homo sapiens, UniProt P09874); assay: PARP-1 colorimetric activity assay kit; assay type: biochemical; conditions: for inhibition of enzymatic activity of PARP-1 (in words): 1 μM
T3 construct: purchased BPS Bioscience 80580

PARP-2 = PARP-2 (Homo sapiens, UniProt Q9UGN5); assay: PARP-2 enzymatic activity inhibition; assay type: biochemical
[1] = test system: beta-catenin transcriptional activity; assay: TCF/luciferase assay of beta-catenin transcriptional activity in HEK cells; assay type: cell-based; conditions: Homo sapiens, HEK293, read-out: β-catenin IC50 in HEK cells
Experimental: To determine whether beta-catenin transcriptional activity is inhibited by the aryl-piperidine derivative compounds, compounds TI-61815 and TI-61910 were treated at various concentrations and examined in HEK cells using the TCF/luciferase assay system.

[2] = test system: activated beta-catenin proteins; assay: Western blotting of activated beta-catenin protein in colon cancer cell lines; assay type: cell-based, human; conditions: COLO320DM and SW403, 10 μM, 24 hours
Source text: (§1) After protein extraction, proteins were quantified through Western blotting (Bio-Rad, USA).

AXIN2 protein = assay: Western blotting of AXIN2 protein in colon cancer cell lines; assay type: cell-based, human; conditions: COLO320DM and SW403, 10 μM, 24 hours
Source text: as §1

[3] = test system: beta-catenin subgenes (AXIN2, CCND1, cMYC, FGF20); assay: Real-time PCR of beta-catenin subgene expression; assay type: cell-based, human; conditions: COLO320DM, 10 μM, 24 hours
Source text: After RNA extraction, cDNA was synthesized to quantify gene expression via real-time PCR.

[4] = test system: colon cancer cell line COLO320DM; assay: Cell viability by colony counting after co-treatment with 5-FU; assay type: cell-based; conditions: Homo sapiens, COLO 320DM, 240 h, 10 days, read-out: cell viability inhibited when co-treated with 5-FU, compared to the sole treatment; for cytotoxicity at 5 µM: 5 μM compound + 0.5 μM 5-FU; for cytotoxicity at 10 µM: 10 μM compound + 0.5 μM 5-FU
Experimental: Each cell line was purchased from the American Type Culture Collection (ATCC) and cultured respectively in RPMI 1640 (Roswell Park Memorial Institute 1640) medium supplemented with 10% fetal bovine serum (FBS), 100 μg/ml streptomycin, and 100 units/ml penicillin in the presence of 5% CO2 at 37° C.
Afterwards, the cell viability was identified by counting the number of colonies by staining with 1.5% methylene blue.

[5] = test system: colon cancer cell line COLO320DM; assay: Cell viability by colony counting (methylene blue staining); conditions: 10 days; for cell viability (in words): 2.5 μM to 40 μM; for cell viability inhibited: 40 μM

T3 sequence (P09874 whole entry): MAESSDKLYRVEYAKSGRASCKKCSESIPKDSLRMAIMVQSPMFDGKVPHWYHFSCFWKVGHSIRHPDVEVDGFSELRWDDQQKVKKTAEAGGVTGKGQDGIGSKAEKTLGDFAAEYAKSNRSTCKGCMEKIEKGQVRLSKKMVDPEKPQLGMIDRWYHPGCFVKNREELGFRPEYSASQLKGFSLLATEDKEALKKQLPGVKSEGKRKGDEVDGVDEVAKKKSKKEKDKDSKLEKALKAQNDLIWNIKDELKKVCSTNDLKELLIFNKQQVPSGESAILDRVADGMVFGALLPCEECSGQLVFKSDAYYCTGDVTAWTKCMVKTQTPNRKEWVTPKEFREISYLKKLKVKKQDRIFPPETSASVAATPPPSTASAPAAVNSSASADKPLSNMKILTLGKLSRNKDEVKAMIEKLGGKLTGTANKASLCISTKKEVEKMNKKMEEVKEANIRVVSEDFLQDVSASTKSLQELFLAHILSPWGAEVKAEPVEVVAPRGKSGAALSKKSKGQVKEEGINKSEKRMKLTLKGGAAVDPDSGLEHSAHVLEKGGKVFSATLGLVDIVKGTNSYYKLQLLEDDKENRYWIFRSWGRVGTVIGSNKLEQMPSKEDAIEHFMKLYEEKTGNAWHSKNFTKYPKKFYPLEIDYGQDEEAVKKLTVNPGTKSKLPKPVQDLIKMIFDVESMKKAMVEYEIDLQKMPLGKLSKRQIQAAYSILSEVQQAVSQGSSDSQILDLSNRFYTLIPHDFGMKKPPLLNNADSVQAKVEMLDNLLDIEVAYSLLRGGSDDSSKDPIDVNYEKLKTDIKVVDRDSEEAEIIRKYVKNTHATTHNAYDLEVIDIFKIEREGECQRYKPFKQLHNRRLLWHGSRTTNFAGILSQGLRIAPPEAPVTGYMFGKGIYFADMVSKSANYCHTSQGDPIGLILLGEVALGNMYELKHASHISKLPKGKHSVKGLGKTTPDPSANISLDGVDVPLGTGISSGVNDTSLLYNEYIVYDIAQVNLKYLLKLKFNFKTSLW
Chain of PARP-2 (Q9UGN5 whole entry): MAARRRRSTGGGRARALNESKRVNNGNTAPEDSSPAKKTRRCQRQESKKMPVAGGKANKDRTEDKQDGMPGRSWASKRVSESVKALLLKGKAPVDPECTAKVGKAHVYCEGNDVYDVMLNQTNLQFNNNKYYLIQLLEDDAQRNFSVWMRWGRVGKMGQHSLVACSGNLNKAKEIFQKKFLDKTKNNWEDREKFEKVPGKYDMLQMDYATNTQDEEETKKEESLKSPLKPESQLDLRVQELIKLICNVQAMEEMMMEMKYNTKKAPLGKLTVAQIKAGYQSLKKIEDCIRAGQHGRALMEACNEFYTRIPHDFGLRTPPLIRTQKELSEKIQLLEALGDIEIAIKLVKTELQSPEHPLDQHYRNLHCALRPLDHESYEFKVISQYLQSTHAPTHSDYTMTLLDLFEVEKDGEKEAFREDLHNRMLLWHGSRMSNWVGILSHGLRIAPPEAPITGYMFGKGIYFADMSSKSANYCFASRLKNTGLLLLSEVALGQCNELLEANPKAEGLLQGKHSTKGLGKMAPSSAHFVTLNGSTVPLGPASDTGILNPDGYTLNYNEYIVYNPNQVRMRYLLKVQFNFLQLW

With `N#Cc1ccccc1N1CCC(CC(=O)Nc2nnc3ccccn23)CC1` [TI-61815, N-([1,2,4]triazolo[4,3-a]pyridin-3-yl)-2-(1-(2-cyanophenyl)piperidin-4-yl)acetamide] the IC50 (TNKS-1) was 64 nM, the inhibition at 10 µM (TNKS-1) was ≥ 95% and the IC50 (TNKS-2) was 49 nM. The IC50 (PARP-1) was 7540 nM, the “inhibition of enzymatic activity of PARP-1 (in words)” value (PARP-1) was “almost no decrease in the inhibition of enzymatic activity of PARP-1” and the IC50 (PARP-2) was 6060 nM. For the same compound, the IC50 [1] was 830 nM, the “levels of the activated beta-catenin proteins” value [2] was “inhibited levels of the activated beta-catenin proteins” and the AXIN2 protein levels (AXIN2 protein) was “stabilization of AXIN2 protein levels”. For the same compound, the “expression levels of beta-catenin subgenes (AXIN2, CCND1, cMYC, FGF20)” value [3] was “inhibited the expression levels of beta-catenin subgenes”, the cytotoxicity at 5 µM [4] was 12.4% and the cytotoxicity at 10 µM [4] was 27.8%. For the same compound, the “cell viability (in words)” value [5] was “decreased in a concentration-dependent manner” and the cell viability inhibited [5] was 61.4%.

`N#Cc1ccccc1N1CCC(CC(=O)Nc2cnc3cccnn23)CC1` [TI-61816, 2-(1-(2-cyanophenyl)piperidin-4-yl)-N-(imidazo[1,2-b]pyridazin-3-yl)acetamide] showed an inhibition at 10 µM (TNKS-1) of 5 ± 1.2%.

With `N#Cc1ccccc1N1CCC(CCC(=O)Nc2nnc3ccccn23)CC1` [TI-61910, N-([1,2,4]triazolo[4,3-a]pyridin-3-yl)-3-(1-(2-cyanophenyl)piperidin-4-yl)propanamide] the IC50 (TNKS-1) was 18 nM, the inhibition at 10 µM (TNKS-1) was ≥ 95% and the IC50 (TNKS-2) was 4 nM. For the same compound, the IC50 (PARP-1) was > 10000 nM, the “inhibition of enzymatic activity of PARP-1 (in words)” value (PARP-1) was “almost no decrease in the inhibition of enzymatic activity of PARP-1” and the IC50 (PARP-2) was > 10000 nM. For the same compound, the IC50 [1] was 490 nM, the “levels of the activated beta-catenin proteins” value [2] was “inhibited levels of the activated beta-catenin proteins” and the AXIN2 protein levels (AXIN2 protein) was “stabilization of AXIN2 protein levels”. The “expression levels of beta-catenin subgenes (AXIN2, CCND1, cMYC, FGF20)” value [3] was “inhibited the expression levels of beta-catenin subgenes”, the cytotoxicity at 2.5 µM ([4]; 2.5 μM compound + 0.5 μM 5-FU) was 26% and the cytotoxicity at 5 µM [4] was 28.3%. The cytotoxicity at 10 µM [4] was 35.5%, the “cell viability (in words)” value [5] was “decreased in a concentration-dependent manner” and the cell viability inhibited [5] was 60.8%.

In the case of `N#Cc1ccccc1N1CCC(CCCC(=O)Nc2nnc3ccccn23)CC1` [TI-62116, N-([1,2,4]triazolo[4,3-a]pyridin-3-yl)-4-(1-(2-cyanophenyl)piperidin-4-yl)butanamide], the inhibition at 10 µM (TNKS-1) is reported as 99 ± 0.1%.

With `N#Cc1ccccc1N1CCC(CCC(=O)Nc2cnc3cccnn23)CC1` [TI-62121, 3-(1-(2-cyanophenyl)piperidin-4-yl)-N-(imidazo[1,2-b]pyridazin-3-yl)propanamide] the inhibition at 10 µM (TNKS-1) was 17 ± 1.5%.

`N#Cc1ccccc1N1CCC(CCC(=O)Nc2cnc3ccccn23)CC1` [TI-62122, 3-(1-(2-cyanophenyl)piperidin-4-yl)-N-(imidazo[1,2-a]pyridin-3-yl)propanamid] was tested, and the inhibition at 10 µM (TNKS-1) was 10 ± 0.9%.

Work on `N#Cc1ccccc1N1CCC(CCC(=O)Nc2cccc3[nH]ccc23)CC1` [TI-62126] yielded an inhibition at 10 µM (TNKS-1) of 1 ± 1.7%.

For `O=C(CCC1CCN(c2ccccc2[N+](=O)[O-])CC1)Nc1nnc2ccccn12` [TI-62188, N-([1,2,4]triazolo[4,3-a]pyridin-3-yl)-3-(1-(2-nitrophenyl)piperidin-4-yl)propanamide], the inhibition at 10 µM (TNKS-1) was ≥ 95%.

`O=C(CCC1CCN(c2cccc([N+](=O)[O-])c2)CC1)Nc1nnc2ccccn12` [TI-62189] showed an inhibition at 10 µM (TNKS-1) of 100%.

In the case of `O=C(CCC1CCN(c2ccc([N+](=O)[O-])cc2)CC1)Nc1nnc2ccccn12` [TI-62190], the inhibition at 10 µM (TNKS-1) is reported as 96 ± 0.2%.

Compound `N#Cc1ccc(N2CCC(CCC(=O)Nc3nnc4ccccn34)CC2)cc1` [TI-62194] has an inhibition at 10 µM (TNKS-1) of 100%.

For `O=C(CCC1CCN(c2ccc([N+](=O)[O-])cc2[N+](=O)[O-])CC1)Nc1nnc2ccccn12` [TI-62195], the inhibition at 10 µM (TNKS-1) was ≥ 95%.

`CC(C)(C)OC(=O)N(CC(=O)Nc1nnc2ccccn12)C1CCN(c2ccccc2C#N)CC1` [TI-62197, tert-Butyl(2-([1,2,4]triazolo[4,3-a]pyridin-3-ylamino)-2-oxoethyl)(1-(2-cyanophenyl)piperidin-4-yl) carbamate] was tested, and the inhibition at 10 µM (TNKS-1) was 3 ± 0.9%.

In the case of `N#Cc1ccccc1N1CCC(NCC(=O)Nc2nnc3ccccn23)CC1` [TI-62198, N-([1,2,4]triazolo[4,3-a]pyridin-3-yl)-2-((1-(2-cyanophenyl)piperidin-4-yl)amino)acetamide trifluoroacetic acid salt], the inhibition at 10 µM (TNKS-1) is reported as 72 ± 0.3%.

Compound `CN(CC(=O)Nc1nnc2ccccn12)C1CCN(c2ccccc2C#N)CC1` [TI-62199, N-([1,2,4]triazolo[4,3-a]pyridin-3-yl)-2-((1-(2-cyanophenyl)piperidin-4-yl)(methyl)amino)acetamide] has an inhibition at 10 µM (TNKS-1) of 98 ± 0.1%.

Reference: US20260242336A1, “COMPOSITION FOR PREVENTING OR TREATING CANCER DISEASES COMPRISING ARYL-PIPERIDINE DERIVATIVE” (KOREA RESEARCH INSTITUTE OF CHEMICAL TECHNOLOGY, priority 2023, published 2026)
